According to US7351811B2, “Gene SCC-112 and diagnostic and therapeutic uses thereof” (Georgetown University, priority 2001, dated 2008):
Several values for one entry are separate records, joined by “and”; a condition that tells them apart may be missing. Equal entries are not always repeated.

Assays:
Assay type in all cases: cell-based, human
[1] = system: SCC-112 mRNA in LnCap prostate cancer cells; assay: Northern hybridization of SCC-112 mRNA in androgen-treated LNCaP cells
Description: FIG. 5. Androgen induces the steady state levels of SCC-112 mRNA in prostate cancer cells. LNcap prostate cancer cells were grown in IMEM with 5% FBS. Logarithmically growing cells were switched to medium containing 5% charcoal stripped serum […] before the experiment. Indicated concentrations of synthetic androgen, R1881 (NEN) were added for 48 h. Total RNA was isolated and subjected to Northern hybridization using SCC-112 as probe.
FIG. 6. […] LnCAP cells were grown in IMEM medium containing 5% fetal bovine serum. Medium was replaced with 5% charcoal-stripped serum containing medium for 24 h, followed by addition of indicated concentration of synthetic androgen (R1881) for 48 h. Total RN A was isolated from various treatments and analyzed by northern blotting and hybridization using a radiolabeled SCC-112 cDNA fragment (1568 bp-6744 bp).
(§1) RNA Isolation and Northern Hybridization: MDA-MB 435 cells were synchronized at different cell cycle stages, and total RNA was isolated with Trizol reagent according to the manufacturer's instructions (Invitrogen Life technologies, Inc.). […] The autoradiographs were scanned and bands were quantified using IMAGEQUANT software (Molecular Dynamics, Sunnyvale, Calif.).

[2] = system: SCC-112 protein in MDA-MB 435 cells; assay: Western blot of SCC-112 protein in nocodazole-arrested (G2/M) MDA-MB 435 cells; conditions: 100 ng/ml, 16 h, G2/M phase
Description: (§2) (C) Expression of SCC-112 mRNA and protein in G2/M phase. Logarithmically growing cells were arrested at G2/M phase using 100 ng/ml of nocodazole for 16 h (+). SCC-112 mRNA (upper) and protein levels (lower) were quantified as above. The SCC-112. mRNA level was ˜2 fold higher during G2/M phase (+) as compared to untreated cells (−). SCC-112 protein level was elevated during G2/M phase (˜5 fold) in nocodazole treated cells (+) as compared to untreated cells (−).
Western Blot Analysis: The cells were rinsed with ice-cold PBS and scrapped in lysis solution containing Tris (20 mM, pH 8.0), NaCl (150 mM), 1% NP-40 (w/v), 10% glycerol (w/v), 1 mM phenylmethylsulphonyl fluoride (PMSF), aprotinin (20 ug/ml) and leupeptin (20 ug/ml). The cells were lysed for 45 min with vigorous shaking at 4° C. and centrifuged at 12,000×g for 15 min at 4° C. Fifty micrograms of total protein were heat denatured by boiling for 5 min in SDS-PAGE loading buffer. After SDS-PAGE, the proteins were electrophoretically transferred on to PVDF membrane (Millipore). […]
(§3) Cell Synchronization and Flow Cytometry: Logarithmically growing MDA-MB 435 cells were treated with 4 ug/ml aphidicolin, a DNA polymerase-a inhibitor, for 24 h to synchronize cells at G1/S phase. […] The cell cycle distribution profiles were determined using a Fluorescence Activated Cell Sorter (Becton Dickinson).

[3] = system: SCC-112 mRNA in MDA-MB 435 cells; assay: Northern hybridization of SCC-112 mRNA in nocodazole-arrested (G2/M) MDA-MB 435 cells; conditions: 100 ng/ml, 16 h, G2/M phase
Description: as §2, §1, §3

## C[C@]1(O)CC[C@H]2[C@@H]3CCC4=CC(=O)CCC4=C3C=C[C@@]21C [R1881]
[1]; LNCaP cells, charcoal-stripped serum, 1 nM to 100 nM, 48 h, vs untreated cells
  induction of steady state level of SCC-112 transcript (~8.0 kb): 4-7 fold and 4- to 7 fold
[1]; LNCap cells, FIG. 5
  effect on SCC-112 mRNA expression (in words): induces SCC-112 mRNA expression

## COC(=O)Nc1nc2ccc(C(=O)c3cccs3)cc2[nH]1 [nocodazole]
[2]
  SCC-112 protein level vs untreated cells: ~5 fold
[3]
  SCC-112 mRNA level vs untreated cells: ~2 fold
